Measurements taken from patent US8349854B2, “Salts of 4-aniline quinazoline derivative” (priority 2007, dated 2013).
Like-named read-outs stand apart in the source and are kept apart here.

Key:
[1] = test system: human mammary cancer cells BT-474; conditions: from PCT/CN2006/002786, result in words; cited from earlier work
[2] = Solubility test in water and in methanol at room temperature; format: physicochemical; conditions: thermodynamic from solid
Procedure: According to the conventional method for determining the solubility, at the room temperature, a suitable amount of the compound to be tested was placed in 15 mL of water. Then the compound was dissolved by sufficient stir. The solution is placed at room temperature for 3 hours. Then 10 ml of the clear saturated supernatant was transferred into the weighing bottle with the pipette. The solvent was evaporated by heating, and the residue was dried and weighed to obtain the mass of the residue, which was the mass of the solute. After calculation, the solubility of the compound of formula (I) and the salts thereof in water can be obtained. The solubility of the compound to be tested in methanol was determined along the same lines.

[3] = test system: human epidermoid squamous cancer cells A431; conditions: from PCT/CN2006/002786, result in words; cited from earlier work
[4] = test system: human epidermoid squamous cancer cells A431; conditions: from PCT/CN2006/002786, result in words; cited from earlier work; remark: listed apart in the source
[5] = Drug absorption in SD rat, intragastric administration (ig); format: in vivo
Procedure: (§1) The blood samples were collected 0.5, 1.0, 1.5, 2.0, 3.0, 5.0, 7.0, 9.0, 12 and 24 hours after administration, which were then centrifugated respectively to obtain the plasma. The concentration of the drug in the plasma was determined by means of liquid chromatography/tandem mass spectrometer, and the concentration-time curve was obtained.

Erb-B2 = Erb-B2 (Homo sapiens, UniProt P04626); conditions: in vitro; from PCT/CN2006/002786, result in words; cited from earlier work
EGFR tyrosine kinases = EGFR tyrosine kinases (Homo sapiens, UniProt P00533); assay: Inhibitory effect on EGFR tyrosine kinases (ELISA, Poly(Glu,Tyr) 4:1); format: biochemical; conditions: result in words
Procedure: The plate coated with EGFR tyrosine kinases reaction substrate Poly(Glu, Tyr) 4:1 was washed three times with T-PBS and dried in oven at the temperature of 37° C. Every well was added with the ATP solution diluted with reaction buffer, the compound to be tested with grading concentrations and the tyrosine kinases to be tested in sequence to initiate the reaction. The plate was incubated in a shaker for 1 hour at the temperature of 37° C., and then was washed three times with T-PBS (the phosphate buffer containing 0.05% of Tween with a pH of 7.4). Antibody PY99 was added and the reaction was kept on at 37° C. for 1 hour. The plate was washed three times with T-PBS, HRP labeled goat anti mouse IgG was then added and incubated at 37° C. for 1 hour. The colorimetric solution of OPD (o-phenylenediamine) was added and the mixture was reacted in dark at room temperature for 1-10 min. The reaction was terminated by the addition of 2M of H2SO4. The OD value at wavelength of 492 nm was measured using the VersaMax™ microplate reader (MDC company, USA). The inhibitory effect of the samples on EGFR tyrosine kinases was determined by the following formula: Inhibition %=[1−(OD Value of the compound to be tested −OD Value of the control without enzyme)/(OD Value of the negative control−OD Value of the control without enzyme)]×100%.

[6] = test system: human breast cancer cell BT-474; assay: Inhibition of proliferation of tumor cell lines (MTT), BT-474; format: cell-based; conditions: BT-474, MTT, 72 h
Procedure: (§2) A DMSO solvent control well and a blank well were set in the plate. […] The incubation was continued for 4 h, and 50 μL of triple-expansion solution (10% SDS-5% of isobutyl alcohol-0.01 mol/L of HCl) was added. The plate was placed in the incubator overnight. The OD value was measured by the microplate reader at wavelength of 570 nm.

[7] = test system: human epidermatoid squamous cancer cell A431; assay: Inhibition of proliferation of tumor cell lines (MTT), A431; format: cell-based; conditions: 72 h
Procedure: as §2

[8] = SD rats, gavage 4 weeks, 20, 50, 100, 500 and 800 mg/(kg·day)
Procedure: Five test groups with the dose of 20, 50, 100, 500 and 800 mg/(kg·day) respectively and a solvent control group were set.

[9] = test system: human ovarian cancer SKOV-3; assay: Anti-tumor effect on human ovarian cancer SKOV-3 transplanted to the BALB/cA nude rat; format: in vivo
Procedure: A tumor SKOV-3 in vigorous growth period was selected and incised into several bits of an even size of about 1.5 mm^3, which was inoculated subcutaneously to the right armpit of the BALB/cA nude rats using trocar under sterile condition. The diameters of the transplanted tumors were measured with a vernier caliper. The animals were grouped randomly when the tumors reached a size of 80-100 mm^3. The tested animals of the group receiving the compounds to be tested were administrated with the compounds by gavage through mouth once daily for 3 weeks continuously. The positive control drug MMC (Mitomycin) was administered by intravenous injection once on the first day with a dose of 5 mg/kg. The negative control group was administered with 0.5% CMC-Na (Carboxymethyl Cellulose Sodium) with a dose of 0.2 mL/per rat. The major axis (a) and the minor axis (b) of the tumors were measured twice every week and the rats were weighed at the same time. According to the formula V=ab^2/2, the tumor volume (mm^3) could be calculated, based on which the relative tumor volume (RTV) was determined (Formula: RTV=Vt/V0, wherein V0 represents the tumor volume measured at the grouping time (i.e. d0), and Vt represents the tumor volume measured each time). The relative tumor proliferation rate T/C (%) was chosen here to evaluate the anti-tumor activity, which can be calculated according to the following formula: T/C(%)=(TRTV/CRTV)×100%
TRTV: RTV of the group receiving the compounds to be tested; CRTV: RTV of negative control group

[10] = test system: human epidermatoid squamous cancer A431; assay: Anti-tumor effect on human epidermatoid squamous cancer A431 transplanted to the BALB/cA nude rat; format: in vivo; conditions: for Weight of animals (without tumor) / inhibition for tumor % / Weight of tumors x ± SD: 13 days; for Weight of tumors x ± SD: 23 days after inoculation
Procedure: A well-developed solid tumor A431 was selected and incised into several bits of an even size of 2-3 mm, with one bit being inoculated subcutaneously to the right armpit of each of the BALB/cA nude rats using trocar. 7 days after inoculation, the rats were grouped randomly and were administrated with the compounds by gavage through mouth for 13 days continuously. The major axis (a) and the minor axis (b) of the tumors were measured with a vernier caliper every 4 days. According to the formula V=ab^2/2, the tumor volume (mm^3) could be calculated. The tested animals were neck-off killed 23 days after the inoculation, and anatomized to obtain the tumors. The tumors were weighed and the inhibitory effect of the compounds to be tested was figured out.

[11] = Drug absorption in SD rat, intravenous injection (iv); format: in vivo; conditions: 5 mg/kg
Procedure: as §1, with “collected 5 min, 15 min,” for “collected”, “0.5,” for “0.5, 1.0,”, “3.0, 4.0,” for “3.0,”, “7.0” for “7.0, 9.0, 12 and 24”

[12] = SD rat, ig, dosage 21.68 (formula (I)), 23.42 (hydrochloride), 30 mg/kg (p-toluenesulfonate)
[13] = SD rat, revised by dosage, calculated by AUC0-t
[14] = 5 mg/kg iv once on the first day, after 3 weeks
[15] = 50 mg/kg ig once daily for 3 weeks
[16] = 100 mg/kg ig once daily for 3 weeks
[17] = 200 mg/kg ig once daily for 3 weeks

Sequence of Erb-B2 (P04626 23-1255, species assumed): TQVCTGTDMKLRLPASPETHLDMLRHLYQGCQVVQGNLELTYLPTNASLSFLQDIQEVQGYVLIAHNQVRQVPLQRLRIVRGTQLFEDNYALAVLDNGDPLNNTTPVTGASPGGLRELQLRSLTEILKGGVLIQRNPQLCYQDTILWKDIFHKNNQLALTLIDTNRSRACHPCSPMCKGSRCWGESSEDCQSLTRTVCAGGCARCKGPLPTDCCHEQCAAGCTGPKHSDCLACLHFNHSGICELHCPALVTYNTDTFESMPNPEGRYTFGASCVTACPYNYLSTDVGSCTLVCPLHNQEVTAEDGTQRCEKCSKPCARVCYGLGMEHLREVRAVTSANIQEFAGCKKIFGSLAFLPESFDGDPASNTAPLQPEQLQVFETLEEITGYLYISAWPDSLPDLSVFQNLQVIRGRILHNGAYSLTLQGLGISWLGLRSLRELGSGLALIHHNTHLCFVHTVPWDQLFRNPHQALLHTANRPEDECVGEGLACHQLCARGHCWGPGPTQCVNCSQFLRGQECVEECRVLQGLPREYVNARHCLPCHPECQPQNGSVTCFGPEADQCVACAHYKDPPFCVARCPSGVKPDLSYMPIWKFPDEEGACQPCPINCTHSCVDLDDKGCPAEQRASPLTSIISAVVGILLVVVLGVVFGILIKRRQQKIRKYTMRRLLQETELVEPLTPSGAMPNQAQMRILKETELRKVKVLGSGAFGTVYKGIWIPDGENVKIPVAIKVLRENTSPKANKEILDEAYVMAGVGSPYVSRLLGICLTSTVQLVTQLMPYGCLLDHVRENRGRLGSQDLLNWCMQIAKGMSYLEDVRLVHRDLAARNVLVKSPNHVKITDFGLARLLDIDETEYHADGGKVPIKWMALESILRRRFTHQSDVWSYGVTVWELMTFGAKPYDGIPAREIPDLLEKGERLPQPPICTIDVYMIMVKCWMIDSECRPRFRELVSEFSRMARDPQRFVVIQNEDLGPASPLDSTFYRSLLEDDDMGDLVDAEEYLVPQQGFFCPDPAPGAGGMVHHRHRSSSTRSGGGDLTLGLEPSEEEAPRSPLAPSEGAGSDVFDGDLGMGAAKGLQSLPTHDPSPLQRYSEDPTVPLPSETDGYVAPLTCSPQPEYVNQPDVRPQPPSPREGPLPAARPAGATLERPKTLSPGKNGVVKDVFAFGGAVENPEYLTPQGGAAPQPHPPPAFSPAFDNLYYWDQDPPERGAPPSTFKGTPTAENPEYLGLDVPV

## C=CC(=O)Nc1ccc2ncnc(Nc3ccc(OCc4cccc(F)c4)c(Cl)c3)c2c1 [Compound of formula (I), N-{4-[3-chloro-4-(3-fluoro-benzyloxy)phenylamino]quinazolin-6-yl}-acrylamide]
[1]
  inhibitory activity of human mammary cancer cells BT-474: relatively good inhibitory activity
[2]; organic solvent or mixture, methanol, read-out: Solubility in methanol(/mL)
  solubility at 3 h: < 1000 µg/mL
[2]; water, read-out: Solubility in water(/mL)
  solubility at 3 h: < 0.01 µg/mL
[3]
  inhibitory activity of human epidermoid squamous cancer cells A431: relatively good inhibitory activity
[4]
  anti-tumor effect on A431 transplanted to a nude rat: conspicuous anti-tumor effect
[5]; male, SD, rat, plasma, po, 30 mg/kg
  half-life: 1.81 h
[5]; male, SD, rat, plasma, po, 30 mg/kg, read-out: AUC0-t
  AUC0-t: 106 ng·h/mL
[5]; male, SD, rat, plasma, po, 30 mg/kg, read-out: Cmax
  Cmax: 32 ng/mL
[5]; male, SD, rat, plasma, po, 30 mg/kg, read-out: Tmax
  Tmax: 0.75 h
[5]; male, plasma, po, 21.68 mg/kg, SD rat, revised by dosage, calculated by AUC0-t, read-out: absolute bioavailability by ig
  bioavailability: 0.95%
Erb-B2
  inhibitory activity against Erb-B2: excellent inhibitory activity

## C=CC(=O)Nc1ccc2ncnc(Nc3ccc(OCc4cccc(F)c4)c(Cl)c3)c2c1.Cl [Hydrochloride, The hydrochloride of N-{4-[3-chloro-4-(3-fluoro-benzyloxy)phenyl-amino]-quinazolin-6-yl}-acrylamide]
EGFR tyrosine kinases
  inhibitory activity of EGFR tyrosine kinases: excellent inhibitory activity
[6]; listed as hydrochloride
  IC50: 460 nM
[7]; listed as hydrochloride
  IC50: 840 nM
[5]; [12]
  AUC0-t: 1038 ng·h/mL
  Cmax: 289 ng/mL
  T1/2: 1.27 h
  Tmax: 2.25 h
[5]; [13]
  absolute bioavailability by ig: 9.30%
[8]
  food intake: normal food intake
  physical signs, appearance, behaviors, activities or shape of dejecta: no abnormality

## CO[C@@]12[C@H](COC(N)=O)C3=C(C(=O)C(C)=C(N)C3=O)N1C[C@@H]1N[C@@H]12 [MMC, Mitomycin, reference compound]
[9]; [14]
  RTV: 3.1 ± 0.5
  T/C: 32.0%
  Volume of tumor V21: 258 ± 77 mm^3

## C=CC(=O)Nc1ccc2ncnc(Nc3ccc(OCc4cccc(F)c4)c(Cl)c3)c2c1.CS(=O)(=O)O [Methanesulfonate, Methanesulfonate of N-{4-[3-chloro-4-(3-fluoro-benzyloxy)phenylamino]-quinazolin-6-yl}-acrylamide]
EGFR tyrosine kinases
  inhibitory activity of EGFR tyrosine kinases: excellent inhibitory activity
[8]
  food intake: normal food intake
  physical signs, appearance, behaviors, activities or shape of dejecta: no abnormality

## C=CC(=O)Nc1ccc2ncnc(Nc3ccc(OCc4cccc(F)c4)c(Cl)c3)c2c1.O=C(O)C(=O)O [Oxalate, Oxalate of N-{4-[3-chloro-4-(3-fluoro-benzyloxy)phenylamino]-quinazolin-6-yl}-acrylamide]
EGFR tyrosine kinases
  inhibitory activity of EGFR tyrosine kinases: excellent inhibitory activity
[8]
  food intake: normal food intake
  physical signs, appearance, behaviors, activities or shape of dejecta: no abnormality

## C=CC(=O)Nc1ccc2ncnc(Nc3ccc(OCc4cccc(F)c4)c(Cl)c3)c2c1.Cc1ccc(S(=O)(=O)O)cc1 [p-Toluenesulfonate, p-Toluenesulfonate of N-{4-[3-chloro-4-(3-fluoro-benzyloxy)phenylamino]quinazolin-6-yl}-acrylamide]
[10]; 25 mg/kg ig
  Weight of animals (without tumor): 21.58 ± 2.18 g
  inhibition for tumor %: 29.99%
  Weight of tumors x ± SD: 0.79 ± 0.20 g
[10]; 50 mg/kg ig
  Weight of animals (without tumor): 22.05 ± 1.59 g
  inhibition for tumor %: 37.15%
  Weight of tumors x ± SD: 0.71 ± 0.20 g
[10]; 100 mg/kg ig
  Weight of animals (without tumor): 22.35 ± 1.92 g
  inhibition for tumor %: 48.65%
  Weight of tumors x ± SD: 0.58 ± 0.21 g
[10]; result in words
  inhibitory effect on the tumors (A431 xenograft): significant inhibitory effect
EGFR tyrosine kinases
  inhibitory activity of EGFR tyrosine kinases: excellent inhibitory activity
[9]; [15]
  RTV: 5.1 ± 1.7
  T/C: 53.0%
  Volume of tumor V21: 421 ± 89 mm^3
[9]; [16]
  RTV: 4.3 ± 1.3
  T/C: 45.0%
  Volume of tumor V21: 345 ± 88 mm^3
[9]; [17]
  RTV: 3.5 ± 0.8
  T/C: 36.9%
  Volume of tumor V21: 303 ± 72 mm^3
[9]; result in words
  tumor inhibitory effect (SKOV-3 xenograft): conspicuous tumor inhibitory effect
[6]
  IC50: 420 nM
[7]
  IC50: 730 nM
[11]
  AUC0-t: 1860 ng·h/mL
  Cmax: 1745 ng/mL
  T1/2: 1.55 h
  Tmax: 4.98 min
[5]; [12]
  AUC0-t: 1235 ng·h/mL
  Cmax: 333 ng/mL
  T1/2: 1.22 h
  Tmax: 3.38 h
[5]; [13]
  absolute bioavailability by ig: 11.07%
[8]
  food intake: normal food intake
  physical signs, appearance, behaviors, activities or shape of dejecta: no abnormality

## Tartrate of N-{4-[3-chloro-4-(3-fluoro-benzyloxy)phenylamino]-quinazolin-6-yl}-acrylamide
EGFR tyrosine kinases
  inhibitory activity of EGFR tyrosine kinases: excellent inhibitory activity
[8]
  food intake: normal food intake
  physical signs, appearance, behaviors, activities or shape of dejecta: no abnormality
  weight and weight growth of the rats: basically similar to the control group with no statistical difference
